# ± gives the expanded uncertainty stated by the source.
# Conditions: Liquid
structure (smiles),measurement,setting,value
Cl [hydrogen chloride],vapor or sublimation pressure,159.01 K,13.79 ± 0.3 kPa
same,vapor or sublimation pressure,182.33 K,72.13 ± 1.2 kPa

# Reference: the NIST ThermoML archive (doi:10.1016/j.jct.2004.05.009)
